Earlier results, collected in US12138350B2, “Method of producing a extruded composition” (Cubic Pharmaceuticals Ltd., priority 2015, dated 2024).

Conditions: Ramukutty and Ramachandran 2014

Compound: CC(C)Cc1ccc(C(C)C(=O)O)cc1 (racemic) [Ibuprofen, (RS)-2-(4-(2-methylpropyl)phenyl)propanoic acid]
- Temperature up to which stable: about 152 °C
